Bounds are passed on as bounds.

As to `CC(=O)OC1CC2(O)C(CCC3(C)C(c4ccc(=O)oc4)CCC32O)C2(C)CCC(OC3OC(CO)C(O)C(O)C3O)C=C12` (centres undefined), the melting point (commonly the temperature of the solid-liquid transition) came out at 169 °C. Then `N#CC(=CNc1ccc(O)cc1)c1ccccc1`, with 150 °C. Under `Cc1ccc(C=C2C(=O)NN=C2c2c(O)c3ccccc3n(C)c2=O)cc1` stands 280 °C.

Take `O=[N+]([O-])c1cc(F)ccc1Cl`: the melting point is 38 °C. In turn, `COC(=O)c1ccc2c(C=O)cn(C(=O)OC(C)(C)C)c2c1` returned a melting point of 214 to 215 °C.

As to `Cn1ccc2c1CC(C)(C)CC2=O`, the melting point worked out at 109 °C. The molecule `N#CC1(c2ccc(Cl)cc2)CCCCC1` returned a melting point of 88 to 92 °C. Under `CCCCCCCCCCCCC(Oc1ccc([N+](=O)[O-])cc1)C(=O)NN` (centres undefined) stands 127 °C. For the molecule `CCC(C)Cn1c(O)nnc1S` (centres undefined), the melting point fell in the range of 147 to 151 °C. As to `Cc1nccn1-c1cccc(C(=O)O)c1`, the melting point fell in the range of 182 to 184 °C. In the case of `Nc1c(I)cc(I)c(C(=O)N(CCC(=O)O)c2ccccc2)c1I`, the melting point stood at 134 °C.

Molecule `O=c1[nH][nH]c(=O)c2cc3c(cc12)CCC3` had a melting point of 310 °C. Then `COC(=O)C1(O)c2ccccc2-c2ccc(Cl)cc21` (centres undefined), with 155 °C; and `Cc1sc2ccccc2c1CC1=NCCN1`, with 156 °C; and `O=C(C1=NOC2C(=O)N(c3cccc4ccccc34)C(=O)C12)c1cccs1` (centres undefined), with 80 °C. Under `CC1(C)C2CCC1(C)C(N=C1C(=O)Nc3ccccc31)C2N=C1C(=O)Nc2ccccc21` (centres undefined) stands 234 °C; under `N[C@@H](CO)c1ccccc1`, 75 to 79 °C.

Consider `O=C(O)CCSc1ccc(Br)cc1`, for which the melting point worked out at 111 °C. The molecule `CC(C)NCC(O)COc1cccc2[nH]ccc12` (centres undefined) registered a melting point of 170 °C.

As to `O=C(OC(=O)C(Cl)Cl)C(Cl)Cl`, the melting point is 29 °C. Then `O=[N+]([O-])c1ccccc1CBr`, with 47 °C. In turn, `O=C(NCCCl)c1ccccc1` gave a melting point of 103 °C. For the molecule `CC(=O)CCCCC(C)=O`, the melting point is 44 °C. Under `COc1ccc2c(=O)n3ccccc3cc2c1` stands 130 °C; under `CC(=O)C[C@@]1(O)C(=O)c2ccccc2-c2ccccc21`, 66.8 °C; under `O=C(O)c1c(F)c(F)c(F)c(F)c1[N+](=O)[O-]`, 134 to 139 °C. Then `CCCC(Cn1cncn1)c1ccc(Cl)cc1Cl` (centres undefined), with 60.3 °C; and `FC(F)(F)c1ccc2cc[nH]c2c1`, with 103 °C; and `CCCCCCCCCCCC(=O)N(C)CC(=O)O`, with 44 to 48 °C. Then `Nc1cccc(-n2ccccc2=O)c1`, with 182 °C. Molecule `Cc1cc(=O)oc2cc(OC3OCC(O)C(O)C3O)ccc12` (centres undefined) registered a melting point of 223 °C. Under `O=C(O)c1cccc(COc2ccccc2)c1` stands 118 to 119 °C; under `Cc1cnc(Cl)c(N)c1`, 82 to 87 °C; under `Cn1ccc(-c2ccc(C(=O)O)cc2)n1`, 240 to 242 °C. Then `CC1C=CCC1` (centres undefined), with -127 °C. Then `O=[N+]([O-])c1cc(C(F)(F)F)ccc1N1CCCC1`, with 54 to 56 °C. In turn, `CCCCCCCCCCCCCC=CC(O)C(CO)NC(C)=O` (centres undefined) gave a melting point of 93 to 96 °C. Then `CC1OC(n2cc(F)c(=O)[nH]c2=O)C(O)C1O` (centres undefined), with 190 °C.

In the case of `NCCCCCN`, the melting point was 9 °C. Under `COC(=O)c1cc(Cl)c(NC(C)=O)cc1OC` stands 155 °C; under `O=[N+]([O-])c1cccc(C=NO)c1`, 124 °C. Under `NCCc1c[nH]c2ccc(O)cc12` stands 168 °C; under `N#CCc1cccc(C(F)(F)F)c1Cl`, 57.5 °C. As to `O=Cc1cc2nccnc2s1`, the melting point is 108 to 109 °C. Then `Cc1cc(O)c(C(C)C)cc1SC#N`, with 103 to 105 °C. Molecule `CCc1cccc(C)c1N(C(=O)CCl)C(C)COC` (centres undefined) returned a melting point of -40 °C.

`C(=C/c1ccc(/N=C/c2ccccc2)cc1)/c1ccc(/N=C/c2ccccc2)cc1`: the melting point is 104 °C. Molecule `COc1ccc(C(=O)C(=O)c2ccc(OC)cc2)cc1` showed a melting point of 131 to 134 °C. For the molecule `CC12CCC(=O)C=C1CCC1C2C(=O)CC2(C)C(C(=O)CO)CCC12` (centres undefined), the melting point amounted to 184 °C. Under `Cc1cnc(N)s1` stands 97 °C. Consider `CC(=O)OCC1=CC2OC(=O)C3=COC(OC4OC(CO)C(O)C(O)C4O)C1C32` (centres undefined), for which the melting point is 132 °C. Under `O=C(O)CCc1cccc(Br)c1` stands 76 to 78 °C. `O=C(O)CCc1c(Cl)cccc1Cl` showed a melting point of 95 to 97 °C. Then `CCOC(=O)C1=C(C)N(C)C(=S)NC1c1ccccc1` (centres undefined), with 147 °C; and `CS(=O)(=O)c1ccc(Br)cc1`, with 102 to 105 °C; and `COc1ccc([N+](=O)[O-])cc1N=C=S`, with 105 to 107 °C. Then `CCCN(CCC)c1c([N+](=O)[O-])cc(C(F)(F)F)c(N)c1[N+](=O)[O-]`, with 124 °C; and `Fc1cccc(Br)n1`, with 32 °C. Under `CSc1nc2[nH]c(=S)n(-c3ccccc3C(=O)O)c(=O)c2n1C` stands 284 °C; under `C=C(C)c1ccc(C)c2ccc(C=O)c-2c1`, 58 °C; under `OCc1ccccc1CN1CCOCC1`, 59 °C. The molecule `Brc1sc(Br)c2c1OCCO2` gave a melting point of 98 °C. In the case of `Nc1ccnc(Br)c1`, the melting point was determined as 98 °C.

`CN1CCc2cc(O)c(O)cc2C1` yielded a melting point of 255 °C. Then `Cc1nc(-c2ccccc2)sc1C(=O)NN`, with 168 to 170 °C; and `NNC(=O)c1cc2ccccc2cc1O`, with 206 to 208 °C; and `O=Cc1c(F)cc(F)cc1F`, with 66 °C. Then `O=C1c2ccccc2C(=O)N1Br`, with 206 °C. Under `c1ccc(COc2ccc3ccccc3c2)cc1` stands 97 °C; under `CC(=O)OC(C)CC(C)C` (centres undefined), -64 °C. Molecule `O=C1CCC(=O)N1Br` gave a melting point of 177 °C. As for `CCC(C(N)=O)n1nnc2ccccc21` (centres undefined), the melting point is 143 °C. Then `CC(=O)Oc1ccc(OC(C)=O)c(C(C)(C)C)c1`, with 64.5 to 65.5 °C; and `Cc1cc(CS)c(CS)cc1C`, with 64 to 69 °C. Under `CC1(C)CC(=O)c2cc(-c3ccccc3)n(-c3ccc(Cl)cc3)c2C1` stands 185 to 187 °C; under `CC12CCCC1C1CCC3CC(Cc4ccccc4)CCC3(C)C1CC2` (centres undefined), 148 °C; under `CCN(CC)CCC1(c2ccccc2)C(=O)Oc2ccccc21` (centres undefined), 43.4 °C.

Molecule `CC(=O)Nc1cc(C(F)(F)F)cc(C(F)(F)F)c1` yielded a melting point of 161 °C. Under `Clc1ccc(-c2cn3c(n2)sc2ccccc23)cc1` stands 158 to 160 °C; under `COC(=O)c1ccc(-c2ccccc2)nc1`, 110 °C; under `Nc1nn2c(C(F)(F)F)cc(=O)[nH]c2c1/N=N/c1c(Br)cc(Br)cc1Br`, 92 to 94 °C. With `Cn1nnc2cc(C=O)ccc21`, the melting point worked out at 162 °C. Under `c1cnc2c(ccc3nccnc32)n1` stands 249 to 252 °C; under `Cc1cc(Cl)cc([N+](=O)[O-])c1N`, 126 to 132 °C.

In the case of `ON=Cc1sccc1Oc1ccccc1`, the melting point is 105 to 106 °C. With `CCc1ccc(Cc2ccccc2)cc1`, the melting point is -24 °C.

`COc1ccccc1CN=C=S` registered a melting point of 28 °C.

As to `Cn1cnc([N+](=O)[O-])c1Cl`, the melting point fell in the range of 146 to 150 °C. Consider `N=C1NC(=N)c2ccccc21`, for which the melting point was determined as 190 °C. With `O=Cc1ccc(O)c(C(=O)O)c1`, the melting point is 250 °C. Under `NC(CCC(=O)O)C(=O)O` (centres undefined) stands 205 °C; under `CCCSP(=O)(OCC)Oc1ccc(Br)cc1Cl` (centres undefined), below 25 °C. As to `Brc1ccc(Oc2ccc(Br)c(Br)c2)c(Br)c1`, the melting point was below 20 °C. Then `OCCNc1ccccc1`, with 11 °C; and `CC(C)OC(=O)C1(S(=O)(=O)c2ccc([N+](=O)[O-])cc2)CCCCCC1`, with 83.5 °C; and `COc1ccc(Br)cc1[N+](=O)[O-]`, with 87 to 88 °C. As for `CC(C)(C)c1nc2ccccc2[nH]1`, the melting point was determined as 320 °C. Under `CCCC(C)C(=O)Nc1ccc(C)c(Cl)c1` (centres undefined) stands 85.5 °C; under `COC(=O)c1ccc2cc(Br)ccc2c1`, 123 to 126 °C. Regarding `CCCc1c(C(=O)O)cnn1-c1ccccc1`, the melting point was 107 to 110 °C. Under `COC1=C(Br)C(=O)C2(C)CCC1C2(C)C` (centres undefined) stands 104 °C; under `CC/C=C/Br`, -100 °C; under `COc1ccc(CCNc2ccccc2N)cc1OC`, 78 to 80 °C. Then `COc1ccccc1N/N=C(/C#N)c1nc2ccccc2c(=O)[nH]1`, with 255 °C; and `CC(C)COC(N)=O`, with 67 °C. As to `O=c1oc(=O)n(Cc2ccccc2)c2ccccc12`, the melting point was 136 to 139 °C. Molecule `O=C(O)COc1c(F)c(F)c(F)c(F)c1F` came in with a melting point of 109 °C. Molecule `O=C1OC(=O)c2c(F)ccc(F)c21` registered a melting point of 217 to 221 °C. Under `CC(O)(C(=O)O)c1ccccc1` (centres undefined) stands 116 °C.

`CC(C)N1CSc2nnc(-c3ccccc3)n2C1` yielded a melting point of 225 to 226 °C. Then `CCCOCCC`, with -122 °C; and `Cc1ccc(C(=O)O)c([N+](=O)[O-])c1O`, with 186 °C. Under `O=C1c2ccccc2C(=O)N1Cc1ccccc1` stands 116 °C; under `O=C1NCCN1`, 131 °C.
